In patent US20070149404A1, “Microbicidal compositions” (BASF AKTIENGESELLSCHAFT, priority 2003, published 2007):

Assays:
Saccharomyces cerevisiae = experiment: Intrinsic activity, microtitre plate method, SC; assay type: cell-based; set-up: key: rating 0 = no activity to 5 = biostatic, may be biocide
Protocol: (§1) The chemistries were tested for their activity against a range of organisms via a microtitre plate method. The test organisms were: • ML—Micrococcus luteus • SA—Staphylococcus aureus • EC—Escherichia coli • PA—Pseudomonas aeruginosa • CF—Citrobacter freundii • PM—Proteus mirabilis • CA—Candida albicans • SC—Saccharomyces cerevisiae • AN—Aspergillus niger • PF—Penicillium funiculosum • AA—Alternaria alternata
(§2) Using the following rating scale: • 0=no activity • 1=minimal inhibition • 2=inhibition • 3=clear inhibition • 4=clear inhibition biostatic, may be biocide activity • 5=biostatic, may be biocide activity
(§3) Readings of 4 and possibly 3 were considered to be valid for biocidal applications.

Citrobacter freundii = experiment: Intrinsic activity, microtitre plate method, CF; assay type: cell-based; set-up: key: rating 0 = no activity to 5 = biostatic, may be biocide
Protocol: as §1, §2, §3

Bacteria = experiment: Intrinsic activity, microtitre plate method, mean score over bacteria; assay type: cell-based, ML, SA, EC, PA, CF, PM; details: performance against organisms/no of organisms, 0 to <3 poor, >3 inhibition, >4 biostasis, biocidal activity
Protocol: as §1, §2, §3

Micrococcus luteus = experiment: Intrinsic activity, microtitre plate method, ML; assay type: cell-based; set-up: key: rating 0 = no activity to 5 = biostatic, may be biocide
Protocol: as §1, §2, §3

[1] = Solubility in water at room temperature
Staphylococcus aureus = experiment: Intrinsic activity, microtitre plate method, SA; assay type: cell-based; set-up: key: 0 = no activity to 5 = biostatic, may be biocide activity
Protocol: as §1, §2, §3

Aspergillus niger = experiment: Intrinsic activity, microtitre plate method, AN; assay type: cell-based; set-up: key: rating 0 = no activity to 5 = biostatic, may be biocide
Protocol: as §1, §2, §3

Penicillium funiculosum = experiment: Intrinsic activity, microtitre plate method, PF; assay type: cell-based; set-up: key: rating 0 = no activity to 5 = biostatic, may be biocide
Protocol: as §1, §2, §3

Escherichia coli = experiment: Intrinsic activity, microtitre plate method, EC; assay type: cell-based; set-up: key: rating 0 = no activity to 5 = biostatic, may be biocide
Protocol: as §1, §2, §3

Fungi [2] = experiment: Intrinsic activity, microtitre plate method, mean score over fungi; assay type: cell-based, CA, SC, AN, PF, AA; details: performance against organisms/no of organisms, 0 to <3 poor, >3 inhibition, >4 biostasis, biocidal activity
Protocol: as §1, §2, §3

Alternaria alternata = experiment: Intrinsic activity, microtitre plate method, AA; assay type: cell-based; set-up: key: rating 0 = no activity to 5 = biostatic, may be biocide
Protocol: as §1, §2, §3

Proteus mirabilis = experiment: Intrinsic activity, microtitre plate method, PM; assay type: cell-based; set-up: key: rating 0 = no activity to 5 = biostatic, may be biocide
Protocol: as §1, §2, §3

Candida albicans = experiment: Intrinsic activity, microtitre plate method, CA; assay type: cell-based; set-up: key: rating 0 = no activity to 5 = biostatic, may be biocide
Protocol: as §1, §2, §3

Pseudomonas aeruginosa = experiment: Intrinsic activity, microtitre plate method, PA; assay type: cell-based; set-up: key: rating 0 = no activity to 5 = biostatic, may be biocide
Protocol: as §1, §2, §3

test bacteria and fungi = experiment: Intrinsic activity against bacteria and fungi, microtitre plate method, summary in words; assay type: cell-based; details: at both concentrations (1000 and 500 ppm a.i.)
Protocol: as §1, §2, §3

fungi [3] = experiment: Efficacy against fungal growth on painted wooden surface (BS3900 G6); assay type: cell-based; details: 0.5% in paint
Protocol: (§4) Testing was performed according to the BS3900 G6 and BBA MOAT 33 methods for evaluation versus fungi and algae, respectively. The methods involve painting a substrate panel with the coating and leaching under running water for 72 hours. The substrates are incubated for 56 days after being inoculated with fungi or algae. Performance is judged by comparing with suitable control samples ie without biocide, a positive control and for fungi with substrate panels that have not been leached.
(§5) Performance rating on painted test substrates (Score of 0, 1 and 2 is considered as a pass) • 0=no growth • 1=trace of growth • 2=growth on 1-10% of test face • 3=growth on 10-30% of test face • 4=growth on 30-70% of test face
(§6) 5=growth on 70-100% of test face.

algae = experiment: Efficacy against algal growth on painted plaster surface (BBA MOAT 33); assay type: cell-based; details: 0.5% in paint; for MEAN ALGAL GROWTH RATING 28 days / MEAN ALGAL GROWTH RATING 56 days / % Improved after 56 days (algal growth): painted plaster; for MEAN ALGAL GROWTH RATING 28 days / MEAN ALGAL GROWTH RATING 56 days: leached 72 hours, mean of ratings 0-5; for MEAN ALGAL GROWTH RATING 28 days: 28 days after inoculation; for MEAN ALGAL GROWTH RATING 56 days: 56 days after inoculation; for % Improved after 56 days (algal growth): versus unpreserved paint
Protocol: as §4, §5, §6

fungi [4] = experiment: Efficacy against fungal growth on painted plaster surface (BS3900 G6); assay type: cell-based; details: 0.5% in paint; for MEAN FUNGAL GROWTH RATING - PLASTER SUBSTRATE 28 days leached / MEAN FUNGAL GROWTH RATING - PLASTER SUBSTRATE 56 days leached: constant running water for 72 hours; for MEAN FUNGAL GROWTH RATING - PLASTER SUBSTRATE 28 days leached / MEAN FUNGAL GROWTH RATING - PLASTER SUBSTRATE 56 days leached / MEAN FUNGAL GROWTH RATING - PLASTER SUBSTRATE 28 days as applied / MEAN FUNGAL GROWTH RATING - PLASTER SUBSTRATE 56 days as applied: mean of ratings 0-5; for % Improved After 56 days leached (fungal, plaster): leached 72 hours; for % Improved After 56 days leached (fungal, plaster) / % Improved After 56 days as applied (fungal, plaster): versus unpreserved paint; for MEAN FUNGAL GROWTH RATING - PLASTER SUBSTRATE 28 days as applied / MEAN FUNGAL GROWTH RATING - PLASTER SUBSTRATE 56 days as applied: no leaching with water; for % Improved After 56 days as applied (fungal, plaster): no leaching
Protocol: as §4, with “The substrates are incubated for 56 days after being inoculated with fungi or algae.” left out
as §5, §6

Compound	SC rating (Saccharomyces cerevisiae; 500 ppm a.i.)	SC rating (Saccharomyces cerevisiae; 1000 ppm a.i.)	CF rating (Citrobacter freundii; 500 ppm a.i.)	CF rating (Citrobacter freundii; 1000 ppm a.i.)	Bacteria Mean Score (Bacteria; 500 ppm a.i.)	Bacteria Mean Score (Bacteria; 1000 ppm a.i.)	ML rating (Micrococcus luteus; 500 ppm a.i.)	ML rating (Micrococcus luteus; 1000 ppm a.i.)	Aq. Solubility (ppm) [1] [ppm]	SA rating (Staphylococcus aureus; 500 ppm a.i.)	SA rating (Staphylococcus aureus; 1000 ppm a.i.)	AN rating (Aspergillus niger; 500 ppm a.i.)	AN rating (Aspergillus niger; 1000 ppm a.i.)	PF rating (Penicillium funiculosum; 500 ppm a.i.)	PF rating (Penicillium funiculosum; 1000 ppm a.i.)	EC rating (Escherichia coli; 500 ppm a.i.)	EC rating (Escherichia coli; 1000 ppm a.i.)	Fungi Mean Score (Fungi [2]; 500 ppm a.i.)	Fungi Mean Score (Fungi [2]; 1000 ppm a.i.)	AA rating (Alternaria alternata; 500 ppm a.i.)	also measured
O=C(O)COc1ccc(Cl)cc1Cl [2,4-D, 2,4-Dichlorphenoxy acetic acid]	1	3	0	5	1.0	3.5	2	5	600	3	3	0	5	3	5	0	3	2.8	4.6	5	AA rating (Alternaria alternata; 1000 ppm a.i.): 5; PM rating (Proteus mirabilis; 500 ppm a.i.): 1; PM rating (Proteus mirabilis; 1000 ppm a.i.): 2; CA rating (Candida albicans; 500 ppm a.i.): 5; CA rating (Candida albicans; 1000 ppm a.i.): 5; PA rating (Pseudomonas aeruginosa; 500 ppm a.i.): 0; PA rating (Pseudomonas aeruginosa; 1000 ppm a.i.): 3
CC(Cc1ccc(C(C)(C)C)cc1)CN1C[C@@H](C)O[C@@H](C)C1 (stereo partly drawn) [Fenpropimorph, 4-[2-Methyl-3-(p-tert.butyl-phenyl)-propyl]-2,6-cis-dimethylmorpholin]	5	5	0	0	0.0	0.3	0	2		0	0	5	5	5	5	0	0	5.0	5.0	5	Spectrum of activity (test bacteria and fungi): only display antifungal activity; Improvement against fungal growth on the wood surface (fungi [3]): only showed marginal improvement; MEAN ALGAL GROWTH RATING 28 days (algae): 2 (2=growth on 1-10% of test face); MEAN ALGAL GROWTH RATING 56 days (algae): 3 (3=growth on 10-30% of test face); % Improved after 56 days (algal growth) (algae): 25.0%; Improvement against algal growth on the plaster surface (algae): exhibited an improvement; AA rating (Alternaria alternata; 1000 ppm a.i.): 5; Improvement against fungal growth on the plaster surface (fungi [4]; as applied or after leaching): exhibited an improvement; MEAN FUNGAL GROWTH RATING - PLASTER SUBSTRATE 28 days leached (fungi [4]): 3 (3=growth on 10-30% of test face); MEAN FUNGAL GROWTH RATING - PLASTER SUBSTRATE 56 days leached (fungi [4]): 3 (3=growth on 10-30% of test face); % Improved After 56 days leached (fungal, plaster) (fungi [4]): 14%; MEAN FUNGAL GROWTH RATING - PLASTER SUBSTRATE 28 days as applied (fungi [4]): 4 (4=growth on 30-70% of test face); MEAN FUNGAL GROWTH RATING - PLASTER SUBSTRATE 56 days as applied (fungi [4]): 4 (4=growth on 30-70% of test face); % Improved After 56 days as applied (fungal, plaster) (fungi [4]): 20%; PM rating (Proteus mirabilis; 500 ppm a.i.): 0; PM rating (Proteus mirabilis; 1000 ppm a.i.): 0; CA rating (Candida albicans; 500 ppm a.i.): 5; CA rating (Candida albicans; 1000 ppm a.i.): 5; PA rating (Pseudomonas aeruginosa; 500 ppm a.i.): 0; PA rating (Pseudomonas aeruginosa; 1000 ppm a.i.): 0
O=C(Nc1ccc(F)cc1)c1cccc(Oc2cccc(C(F)(F)F)c2)n1 [Picolinafen]									0.004												Improvement against fungal growth on the wood surface (fungi [3]): only showed marginal improvement; MEAN ALGAL GROWTH RATING 28 days (algae): 1.5; MEAN ALGAL GROWTH RATING 56 days (algae): 2.5; % Improved after 56 days (algal growth) (algae): 37.5%; Improvement against algal growth on the plaster surface (algae): exhibited an improvement; MEAN FUNGAL GROWTH RATING - PLASTER SUBSTRATE 28 days leached (fungi [4]): 3 (3=growth on 10-30% of test face); MEAN FUNGAL GROWTH RATING - PLASTER SUBSTRATE 56 days leached (fungi [4]): 3.5; % Improved After 56 days leached (fungal, plaster) (fungi [4]): 0%; MEAN FUNGAL GROWTH RATING - PLASTER SUBSTRATE 28 days as applied (fungi [4]): 4.5; MEAN FUNGAL GROWTH RATING - PLASTER SUBSTRATE 56 days as applied (fungi [4]): 5 (5=growth on 70-100% of test face); % Improved After 56 days as applied (fungal, plaster) (fungi [4]): 0%
Metiram									2.7												
